Assay results taken from patent US20230085307A1, “PYRIDAZINONE COMPOUND AND HERBICIDE” (NISSAN CHEMICAL CORPORATION, priority 2019, published 2023).

Legend:
[1] = tested on: lambsquarters; experiment: Test Example 5: herbicidal effect by foliage application, plastic box (Table 20, symbol O); assay type: in vivo, lambsquarters (Chenopodium album); conditions: foliage application, AAH 320 g/ha, three weeks after application
Outline: (§1)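 Foliar spray test: emulsion formulation diluted in water to a set application rate, sprayed onto 14-day-old plants raised in diluvial soil at 25° C to 30° C under glass. Both herbicidal effect and crop effect rated visually three weeks later.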

[2] = tested on: Chinese sprangletop; experiment: Test Example 3: herbicidal effect by foliage application, Wagner pot (Table 18, symbol D); assay type: in vivo, chinese sprangletop (Leptochloa chinensis); conditions: 320 g/ha
Outline: (§2)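 Plants were sown in alluvial soil held under 0.1–0.5 cm standing water and grown 14 days in a greenhouse at 25–30 °C. An emulsifiable formulation, water-diluted to the set dose, was then sprayed onto the foliage, and effects were scored three weeks later using previously defined criteria.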

[3] = tested on: chickweed; experiment: Test Example 5: herbicidal effect by foliage application, plastic box (Table 20, symbol P); assay type: in vivo, common chickweed (Stellaria media); conditions: foliage application, AAH 320 g/ha, three weeks after application
Outline: as §1

[4] = tested on: false cleavers; experiment: Test Example 4: herbicidal effect by soil treatment (Table 19, symbol Q); assay type: in vivo, false cleavers (Galium spurium); conditions: amount of applied herbicide 320 g/ha
Outline: (§3)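 Herbicidal effect was rated 3 weeks after treatment, using the scoring criteria of an earlier test. The compound, formulated as an emulsion and diluted in water to a set herbicide amount, had been sprayed uniformly on soil over freshly sown seeds. Growth took place in a greenhouse at 25° C. to 30° C.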

[5] = tested on: barnyard grass; experiment: Test Example 5: herbicidal effect by foliage application, plastic box (Table 20, symbol H); assay type: in vivo, barnyard grass (Echinochloa crus-galli); conditions: foliage application, AAH 320 g/ha, three weeks after application
Outline: as §1

[6] = tested on: Italian ryegrass; experiment: Test Example 5: herbicidal effect by foliage application, plastic box (Table 20, symbol K); assay type: in vivo, Italian ryegrass (Lolium multiflorum); conditions: foliage application, AAH 320 g/ha, three weeks after application
Outline: as §1

[7] = tested on: persian speedwell; experiment: Test Example 5: herbicidal effect by foliage application, plastic box (Table 20, symbol R); assay type: in vivo, Persian speedwell (Veronica persica); conditions: foliage application, AAH 320 g/ha, three weeks after application
Outline: as §1

[8] = tested on: wild oat; experiment: Test Example 5: herbicidal effect by foliage application, plastic box (Table 20, symbol I); assay type: in vivo, wild oat (Avena fatua); conditions: foliage application, AAH 320 g/ha, three weeks after application
Outline: as §1

[9] = tested on: barnyard grass; experiment: Test Example 4: herbicidal effect by soil treatment (Table 19, symbol H); assay type: in vivo, barnyard grass (Echinochloa crus-galli); conditions: amount of applied herbicide 320 g/ha
Outline: as §3

[10] = tested on: persian speedwell; experiment: Test Example 4: herbicidal effect by soil treatment (Table 19, symbol R); assay type: in vivo, Persian speedwell (Veronica persica); conditions: amount of applied herbicide 320 g/ha
Outline: as §3

[11] = tested on: windgrass; experiment: Test Example 5: herbicidal effect by foliage application, plastic box (Table 20, symbol L); assay type: in vivo, windgrass (Apera spica-venti); conditions: foliage application, AAH 320 g/ha, three weeks after application
Outline: as §1

[12] = tested on: southern crabgrass; experiment: Test Example 4: herbicidal effect by soil treatment (Table 19, symbol F); assay type: in vivo, southern crabgrass (Digitaria ciliaris); conditions: amount of applied herbicide 320 g/ha
Outline: as §3

[13] = tested on: green foxtail; experiment: Test Example 5: herbicidal effect by foliage application, plastic box (Table 20, symbol G); assay type: in vivo, green foxtail (Setaria viridis); conditions: foliage application, AAH 320 g/ha, three weeks after application
Outline: as §1

[14] = tested on: barnyard grass; experiment: Test Example 3: herbicidal effect by foliage application, Wagner pot (Table 18, symbol H); assay type: in vivo, barnyard grass (Echinochloa crus-galli); conditions: 320 g/ha
Outline: as §2

[15] = tested on: blackgrass; experiment: Test Example 4: herbicidal effect by soil treatment (Table 19, symbol J); assay type: in vivo, blackgrass (Alopecurus myosuroides); conditions: amount of applied herbicide 320 g/ha
Outline: as §3

[16] = tested on: velvetleaf; experiment: Test Example 5: herbicidal effect by foliage application, plastic box (Table 20, symbol M); assay type: in vivo, velvetleaf (Abutilon theophrasti); conditions: foliage application, AAH 320 g/ha, three weeks after application
Outline: as §1

[17] = tested on: redroot pigweed; experiment: Test Example 5: herbicidal effect by foliage application, plastic box (Table 20, symbol N); assay type: in vivo, redroot pigweed (Amaranthus retroflexus); conditions: foliage application, AAH 320 g/ha, three weeks after application
Outline: as §1

[18] = tested on: velvetleaf; experiment: Test Example 4: herbicidal effect by soil treatment (Table 19, symbol M); assay type: in vivo, velvetleaf (Abutilon theophrasti); conditions: amount of applied herbicide 320 g/ha
Outline: as §3

[19] = tested on: green foxtail; experiment: Test Example 4: herbicidal effect by soil treatment (Table 19, symbol G); assay type: in vivo, green foxtail (Setaria viridis); conditions: amount of applied herbicide 320 g/ha
Outline: as §3

[20] = tested on: chickweed; experiment: Test Example 4: herbicidal effect by soil treatment (Table 19, symbol P); assay type: in vivo, common chickweed (Stellaria media); conditions: amount of applied herbicide 320 g/ha
Outline: as §3

[21] = tested on: lambsquarters; experiment: Test Example 4: herbicidal effect by soil treatment (Table 19, symbol O); assay type: in vivo, lambsquarters (Chenopodium album); conditions: amount of applied herbicide 320 g/ha
Outline: as §3

[22] = tested on: wild oat; experiment: Test Example 4: herbicidal effect by soil treatment (Table 19, symbol I); assay type: in vivo, wild oat (Avena fatua); conditions: amount of applied herbicide 320 g/ha
Outline: as §3

[23] = tested on: Italian ryegrass; experiment: Test Example 4: herbicidal effect by soil treatment (Table 19, symbol K); assay type: in vivo, Italian ryegrass (Lolium multiflorum); conditions: amount of applied herbicide 320 g/ha
Outline: as §3

[24] = tested on: windgrass; experiment: Test Example 4: herbicidal effect by soil treatment (Table 19, symbol L); assay type: in vivo, windgrass (Apera spica-venti); conditions: amount of applied herbicide 320 g/ha
Outline: as §3

[25] = tested on: rice flat sedge; experiment: Test Example 3: herbicidal effect by foliage application, Wagner pot (Table 18, symbol E); assay type: in vivo, rice flat sedge (Cyperus iria); conditions: 320 g/ha
Outline: as §2

[26] = tested on: blackgrass; experiment: Test Example 5: herbicidal effect by foliage application, plastic box (Table 20, symbol J); assay type: in vivo, blackgrass (Alopecurus myosuroides); conditions: foliage application, AAH 320 g/ha, three weeks after application
Outline: as §1

[27] = tested on: southern crabgrass; experiment: Test Example 5: herbicidal effect by foliage application, plastic box (Table 20, symbol F); assay type: in vivo, southern crabgrass (Digitaria ciliaris); conditions: foliage application, AAH 320 g/ha, three weeks after application
Outline: as §1

[28] = tested on: redroot pigweed; experiment: Test Example 4: herbicidal effect by soil treatment (Table 19, symbol N); assay type: in vivo, redroot pigweed (Amaranthus retroflexus); conditions: amount of applied herbicide 320 g/ha
Outline: as §3

CCCC(=O)Oc1c(C)nn(C)c(=O)c1-c1c(-n2cc(Cl)cn2)sc2ccccc12 [Compound No. 1-098, 1,3-dimethyl-6-oxo-5-(2-(4-chloro-1H-pyrazol-1-yl)benzo[b]thiophen-3-yl)-1,6-dihydropyridazin-4-yl=(n-butyrate)]
O: lambsquarters, herbicidal effect [1]: 5 (Herbicidal rate of 90% or more (almost completely withered)) | herbicidal effect on D (Chinese sprangletop), rating 0-5 [2]: 0 (Herbicidal rate of 5% or less (almost no effect)) | P: chickweed, herbicidal effect [3]: 5 (Herbicidal rate of 90% or more (almost completely withered)) | herbicidal effect rating, Q: false cleavers [4]: 0 (Herbicidal rate of 5% or less (almost no effect)) | H: barnyard grass, herbicidal effect [5]: 3 (Herbicidal rate of 40% or more and less than 70%) | K: Italian ryegrass, herbicidal effect [6]: 2 (Herbicidal rate of 20% or more and less than 40%) | R: persian speedwell, herbicidal effect [7]: 3 (Herbicidal rate of 40% or more and less than 70%) | I: wild oat, herbicidal effect [8]: 0 (Herbicidal rate of 5% or less (almost no effect)) | herbicidal effect rating, H: barnyard grass [9]: 0 (Herbicidal rate of 5% or less (almost no effect)) | herbicidal effect rating, R: persian speedwell [10]: 0 (Herbicidal rate of 5% or less (almost no effect)) | L: windgrass, herbicidal effect [11]: 0 (Herbicidal rate of 5% or less (almost no effect)) | herbicidal effect rating, F: southern crabgrass [12]: 0 (Herbicidal rate of 5% or less (almost no effect)) | G: green foxtail, herbicidal effect [13]: 2 (Herbicidal rate of 20% or more and less than 40%) | herbicidal effect on H (barnyard grass), rating 0-5 [14]: 0 (Herbicidal rate of 5% or less (almost no effect)) | herbicidal effect rating, J: blackgrass [15]: 0 (Herbicidal rate of 5% or less (almost no effect)) | M: velvetleaf, herbicidal effect [16]: 0 (Herbicidal rate of 5% or less (almost no effect)) | N: redroot pigweed, herbicidal effect [17]: 5 (Herbicidal rate of 90% or more (almost completely withered)) | herbicidal effect rating, M: velvetleaf [18]: 3 (Herbicidal rate of 40% or more and less than 70%) | herbicidal effect rating, G: green foxtail [19]: 0 (Herbicidal rate of 5% or less (almost no effect)) | herbicidal effect rating, P: chickweed [20]: 3 (Herbicidal rate of 40% or more and less than 70%) | herbicidal effect rating, O: lambsquarters [21]: 4 (Herbicidal rate of 70% or more and less than 90%) | herbicidal effect rating, I: wild oat [22]: 0 (Herbicidal rate of 5% or less (almost no effect)) | herbicidal effect rating, K: Italian ryegrass [23]: 0 (Herbicidal rate of 5% or less (almost no effect)) | herbicidal effect rating, L: windgrass [24]: 0 (Herbicidal rate of 5% or less (almost no effect)) | herbicidal effect on E (rice flat sedge), rating 0-5 [25]: 4 (Herbicidal rate of 70% or more and less than 90%) | J: blackgrass, herbicidal effect [26]: 0 (Herbicidal rate of 5% or less (almost no effect)) | F: southern crabgrass, herbicidal effect [27]: 0 (Herbicidal rate of 5% or less (almost no effect)) | herbicidal effect rating, N: redroot pigweed [28]: 0 (Herbicidal rate of 5% or less (almost no effect))
